Assays:
[1] = test system: termites (Coptotermes formosanus, workers); test: Termite antifeeding test on treated Japanese black pine wood (Test Example 1); type: in vivo; details: 100 termites, 3 weeks in the dark
Experimental: A designated amount (10 mg or 100 mg) of octyl gallate was dissolved in 0.3 ml of acetone and uniformly spread on a piece of Japanese black pine wood (1 cm×1 cm×2 cm) with pipette. The wood was allowed to stand overnight at room temperature, dried at 60° C. in a thermostat for 3 days, and then the weight of the wood was measured. The bottom of a 200 ml-volume plastic cup having several holes on the bottom was covered with gypsum in 2 cm thickness. The wood prepared above and 100 termites (Coptotermes formosanus, workers) were put in the plastic cup and kept in the dark for 3 weeks. For that time, cotton wool containing water was set under the plastic cup, and the gypsum was kept wet through the hole. After 3 weeks, the wood was recovered, dried at 60° C. in a thermostat for 3 days, and then the weight of the wood was measured. The decreasing ratio of the weight was calculated. For a reference, a piece of Japanese black pine wood treated with only 0.3 ml of acetone was tested and the decreasing ratio of the weight was calculated in the same manner.

[2] = test system: termites (Coptotermes formosanus, workers); test: Termite antifeeding test on treated filter paper (Test Example 2); type: in vivo; details: 10 mg of test compound on filter paper (33 mm in diameter); fifty termites; one week; tests repeated three times
Experimental: An acetone solution (1 ml) containing 10 mg of the test compound was dropped on filter paper (33 mm in diameter, Milk sediment disk 1026 produced by Toyo Roshi K.K.) and dried at room temperature overnight. The filter paper was set in a white plastic cup (35 mm in diameter) having one hole on side and one hole in bottom, wherein the diameter of the holes are about 3 mm and termites can easily go through the holes. The white plastic cup was put into the 200 ml-volume plastic cup having several holes on the bottom which was covered with gypsum in 2 cm thickness. Fifty termites (Coptotermes formosanus, workers) were put in the 200 ml-volume plastic cup and kept in the container, the bottom of which was filled with wet cotton wool. The container was covered for keeping wet therein. After one week, the filter paper was recovered, dried well at room temperature, and then the weight was measured. The decreasing ratio of the weight was calculated. The tests were repeated three times. For a reference, filter paper treated with only 1 ml of acetone was tested and the decreasing ratio of the weight was calculated in the same manner.

SMILES | The decreasing ratio of the weight (%) ([1]; 10 mg of octyl gallate on Japanese black pine wood (1 cm×1 cm×2 cm)) | The decreasing ratio of the weight (%) ([1]; 100 mg of octyl gallate on Japanese black pine wood (1 cm×1 cm×2 cm)) | The decreasing ratio of the weight (%) [2]
CCCCCCCCOC(=O)c1cc(O)c(O)c(O)c1 [octyl gallate, Octyl gallate] | 2.4% | 0.9% | 
CCCCCCCCCCOC(=O)c1cc(O)c(O)c(O)c1 [Decyl gallate, decyl gallate] |  |  | 0%
CCCCCCCCCCCCOC(=O)c1cc(O)c(O)c(O)c1 [Dodecyl gallate] |  |  | 1.13%

Source: patent publication US20060009519A1, “Antifeeding method against insects” (SUMITOMO CHEMICAL COMPANY, LIMITED, priority 2004, published 2006)
